Experimental data taken from ChEMBL document CHEMBL1201862, “PubChem BioAssay data set” (2004).
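Compound exposure: 48 hours, 5 concentrations, 96-well plates. Abbreviation: GI50, concentration required for 50% inhibition of growth.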 Calls of active or inactive are those of the source. Cut-off read from the data, not from the text of the source: active = GI50 up to about 1.1 µM and inactive = higher.

Tests used:
Assay in all cases: NCI tumour cell line growth inhibition, 48 h
BT-549 = system: BT-549
HCC 2998 = system: HCC 2998
HCT-116 = system: HCT-116
HOP-92 = system: HOP-92
K562 = system: K562
MDA-MB-231 = system: MDA-MB-231
MDA-MB-435 = system: MDA-MB-435
NCI-H226 = system: NCI-H226
OVCAR-4 = system: OVCAR-4
PC-3 = system: PC-3
SK-MEL-28 = system: SK-MEL-28
SN12C = system: SN12C
SR = system: SR
T47D = system: T47D
U-251 = system: U-251
UACC-257 = system: UACC-257
COLO 205 = system: COLO 205
MCF7 = system: MCF7
SF-539 = system: SF-539

Measured: GI50

CN(C)CCNc1ccccn1
inactive: BT-549 > 100 µM | HCC 2998 > 100 µM | HCT-116 > 100 µM | HOP-92 > 100 µM | K562 > 100 µM | MDA-MB-231 > 100 µM | MDA-MB-435 > 100 µM | NCI-H226 > 100 µM | OVCAR-4 > 100 µM | PC-3 > 100 µM | SK-MEL-28 > 100 µM | SN12C > 100 µM | SR > 100 µM | T47D > 100 µM | U-251 > 100 µM | UACC-257 > 100 µM

CCOC(=O)Cn1sc2ncc([N+](=O)[O-])cc2c1=O
inactive: COLO 205 13 µM | HCC 2998 16.4 µM | HCT-116 17.3 µM | HOP-92 13.3 µM | K562 2.84 µM | MCF7 18.1 µM | MDA-MB-231 15.7 µM | MDA-MB-435 16.2 µM | NCI-H226 > 100 µM | OVCAR-4 18.8 µM | PC-3 14.8 µM | SF-539 19.5 µM | SK-MEL-28 15.1 µM | SN12C 16.6 µM | SR 4.02 µM | T47D 16.5 µM | UACC-257 17.1 µM

CCOC(=O)[C@]12C(=C(c3ccccc3)O[C@H]3C=CCC[C@H]31)C(=O)C(=O)N2c1ccccc1
inactive: COLO 205 > 100 µM | HCC 2998 > 100 µM | HCT-116 > 100 µM | K562 17.5 µM | MCF7 > 100 µM | MDA-MB-231 > 100 µM | OVCAR-4 > 100 µM | PC-3 58.2 µM | SF-539 > 100 µM | SN12C > 100 µM | SR 17.7 µM | T47D > 100 µM | U-251 13.4 µM

Cc1c2c(n(C)c1C)C(=O)C1C(C2=O)C2(C)c3ccccc3C1(C)c1ccccc12 (stereo unspecified)
inactive: BT-549 > 100 µM | COLO 205 > 100 µM | HCT-116 > 100 µM | K562 > 100 µM | MCF7 > 100 µM | MDA-MB-435 > 100 µM | NCI-H226 > 100 µM | PC-3 > 100 µM | SF-539 > 100 µM | SK-MEL-28 > 100 µM | SR 24.4 µM | T47D > 100 µM | U-251 > 10 µM | UACC-257 > 100 µM

Fc1cccc(C2SCc3nc4ccccc4n32)c1 (stereo unspecified)
inactive: COLO 205 71.4 µM | HCC 2998 55.7 µM | HCT-116 45.9 µM | HOP-92 12.5 µM | K562 28.5 µM | NCI-H226 41.1 µM | SF-539 > 100 µM | SK-MEL-28 > 10 µM | SN12C 50.5 µM | SR 35.6 µM | UACC-257 17.6 µM

CN1NC(c2ccccc2)=C(C#N)C(=O)CC1c1ccccc1Cl (stereo unspecified)
inactive: COLO 205 > 100 µM | HCC 2998 > 100 µM | HCT-116 > 100 µM | HOP-92 > 100 µM | NCI-H226 > 100 µM | OVCAR-4 > 100 µM | SK-MEL-28 > 100 µM | SN12C > 100 µM | SR > 100 µM | U-251 > 100 µM | UACC-257 > 100 µM

CN(C)c1ccc(/C=C2\C[C@H]3[C@@H]4CC=C5C[C@@H](O)CC[C@]5(C)[C@H]4CC[C@]3(C)[C@H]2O)cc1
inactive: BT-549 21 µM | COLO 205 11 µM | HCT-116 6.59 µM | K562 28 µM | MCF7 17.4 µM | MDA-MB-231 16.2 µM | NCI-H226 17.4 µM | OVCAR-4 35.6 µM | PC-3 13.1 µM | SF-539 10.2 µM | SK-MEL-28 20.4 µM | SN12C 12.8 µM | SR 21 µM | T47D 23.3 µM | U-251 8.2 µM | UACC-257 18.2 µM

CC(=O)c1ccc2c(c1)oc(=O)n2CCN1CCCCC1
inactive: BT-549 > 100 µM | COLO 205 > 100 µM | HCT-116 > 100 µM | K562 > 100 µM | MCF7 > 100 µM | MDA-MB-231 > 100 µM | MDA-MB-435 > 100 µM | NCI-H226 > 100 µM | PC-3 > 100 µM | SF-539 > 100 µM | SK-MEL-28 > 100 µM | SN12C > 100 µM | SR > 100 µM | U-251 > 100 µM | UACC-257 > 100 µM

CC(C)(C)C(O)CC(O)(C(F)(F)F)C(F)(F)F (stereo unspecified)
inactive: COLO 205 > 100 µM | HCC 2998 > 100 µM | HCT-116 > 100 µM | HOP-92 > 100 µM | K562 > 100 µM | MCF7 > 100 µM | MDA-MB-231 > 100 µM | MDA-MB-435 > 100 µM | NCI-H226 > 100 µM | OVCAR-4 > 100 µM | PC-3 > 100 µM | SF-539 > 100 µM | SK-MEL-28 > 100 µM | SN12C > 100 µM | SR > 100 µM | T47D > 100 µM | U-251 > 100 µM | UACC-257 > 100 µM
